According to patent publication US9783509B2, “Six-membered C-N-linked aryl sulfide derivatives and aryl sulfoxide derivatives as pest conrol agents” (BAYER CROPSCIENCE AKTIENGESELLSCHAFT, priority 2013, dated 2017):
Read-outs that look alike come from different tables or passages of the source.

Tests used:
[1] = tested on: southern root-knot nematode (Meloidogyne incognita); assay: Meloidogyne incognita test (sand, lettuce, acetone solvent, 14 days); format: in vivo; conditions: application rate 20 ppm, after 14 days; for pest or weed control at 20 ppm: Meloidogyne incognita, 336 h, read-out: nematicidal efficacy (formation of galls)
Experimental: Meloidogyne incognita Test
Solvent: 125.0 parts by weight of acetone
To produce an appropriate active ingredient formulation, 1 part by weight of active ingredient is mixed with the stated amount of solvent and the concentrate is diluted with water to the desired concentration.
Vessels are filled with sand, active ingredient solution, an egg/larvae suspension of the southern root-knot nematode (Meloidogyne incognita) and lettuce seeds. The lettuce seeds germinate and the plants develop. The galls develop on the roots
After 14 days, the nematicidal efficacy in % is determined by the formation of galls. 100% means that no galls were found; 0% means that the number of galls on the treated plants corresponds to the untreated control.

[2] = tested on: greenhouse red spider mite (Tetranychus urticae); assay: Tetranychus urticae spray test, OP-resistant (bean leaf discs); format: in vivo; conditions: after 6 days; for pest or weed control at 500 g/ha: Tetranychus urticae, foliar, 144 h, read-out: efficacy (spider mites killed)
Experimental: Tetranychus urticae—Spray Test, OP-Resistant
Solvent: 78.0 parts by weight of acetone • • 1.5 parts by weight of dimethylformamide
Emulsifier: alkylaryl polyglycol ether
To produce an appropriate active ingredient formulation, 1 part by weight of active ingredient is dissolved using the specified parts by weight of solvent and made up with water containing an emulsifier concentration of 1000 ppm until the desired concentration is attained. To produce further test concentrations, the preparation is diluted with emulsifier-containing water.
Discs of bean leaves (Phaseolus vulgaris) infested by all stages of the greenhouse red spider mite (Tetranychus urticae) are sprayed with an active ingredient formulation of the desired concentration.
After 6 days, the efficacy in % is determined. 100% means that all the spider mites have been killed; 0% means that none of the spider mites have been killed.

[3] = log P by reversed-phase HPLC analogously to OECD Guideline 117; format: physicochemical; conditions: for chromatographic logP: reversed-phase C18 HPLC column
Experimental: The log P values were determined analogously to OECD Guideline 117 (EC Directive 92/69/EEC) by HPLC (high-performance liquid chromatography) using reversed-phase columns (C 18), by the following methods:
[a] LC-MS determination in the acidic range is effected at pH 2.7 with 0.1% aqueous formic acid and acetonitrile (containing 0.1% formic acid) as eluents with a linear gradient from 10% acetonitrile to 95% acetonitrile; or with 0.025% aqueous trifluoroacetic acid and acetonitrile (containing 0.025% trifluoroacetic acid) as eluents with a linear gradient from 50% acetonitrile to 80% acetonitrile.
[b] LC-MS determination in the neutral range is effected at pH 7.8 with 0.001 molar aqueous ammonium hydrogencarbonate solution and acetonitrile as eluents; linear gradient from 10% acetonitrile to 95% acetonitrile.
Calibration is effected with solutions of a homologous series of unbranched alkan-2-ones (having 3 to 16 carbon atoms) with known log P values (log P values determined on the basis of the retention times by linear interpolation between two successive alkanones).

[4] = [a] acidic range, pH 2.7, formic acid (or trifluoroacetic acid)/acetonitrile
[5] = [b] neutral range, pH 7.8, ammonium hydrogencarbonate/acetonitrile
[6] = pH 2.7, running text, [a] acidic range, pH 2.7, read-out: log P[a]
[7] = pH 2.7, table column, [a] acidic range, pH 2.7, formic acid (or trifluoroacetic acid)/acetonitrile, read-out: LogP[a]
[8] = pH 7.8, running text, [b] neutral range, pH 7.8, read-out: log P[b]
[9] = pH 7.8, table column, [b] neutral range, pH 7.8, ammonium hydrogencarbonate/acetonitrile, read-out: LogP[b]

Row | Compound | nematicidal efficacy (formation of galls) [1] | efficacy (spider mites killed) ([2]; application rate 500 g/ha) | LogP[a] [3, 4] | LogP[b] [3, 5] | also measured
1 | O=c1cnn(-c2cc(SCC(F)(F)F)c(Cl)cc2Cl)c(=O)n1CC(F)(F)F [compound 12] | 90% | 90% | 3.93 |  | 
2 | Cc1cc(F)c(-n2ccc(=O)n(CC(F)(F)F)c2=O)cc1SCC(F)(F)F [compound 72] | 100% | 90% | 3.16 | 3.29 | 
3 | Cc1cc(F)c(-n2ncc(=O)n(CC#N)c2=O)cc1SCC(F)(F)F [compound 39] | 90% | 100% | 2.96 | 2.9 | 
4 | Cc1ccc(-n2ccc(=O)n(CC#N)c2=O)cc1SCC(F)(F)F [compound 85] | 90% | 100% | 2.55 | 2.62 | 
5 | CCn1c(=O)ccn(-c2cc([S+]([O-])CC(F)(F)F)c(C)cc2F)c1=O (centres unmarked) [Ex. No. 59, 3-Ethyl-1-{2-fluoro-4-methyl-5-[(2,2,2-trifluoroethyl)sulphinyl]phenyl}pyrimidine-2,4(1H,3H)-dione] |  |  |  |  | pest or weed control at 20 ppm [1]: 100%; pest or weed control at 500 g/ha ([2]; application rate 500 g/ha): 90%; chromatographic logP [3, 6]: 1.94; chromatographic logP [3, 7]: 1.88; chromatographic logP [3, 8]: 1.88; chromatographic logP [3, 9]: 1.94
6 | Cc1cc(F)c(-n2ccc(=O)n(CC3CC3)c2=O)cc1SCC(F)(F)F [compound 74] | 100% | 90% | 3.24 | 3.38 | 
7 | O=c1cnn(-c2cc([S+]([O-])CC(F)(F)F)c(Cl)cc2Cl)c(=O)[nH]1 (racemic) [compound 15] | 90% |  | 2.02 | 1.1 | 
8 | O=c1cnn(-c2cc(SCC(F)(F)F)c(Cl)cc2Cl)c(=O)[nH]1 [compound 8] | 90% |  | 2.72 | 1.4 | 
9 | Cc1ccc(-n2ccc(=O)n(C)c2=O)cc1SCC(F)(F)F [Ex. No. 58, 3-Methyl-1-{4-methyl-3-[(2,2,2-trifluoroethyl)sulphanyl]phenyl}pyrimidine-2,4(1H,3H)-dione] |  |  |  |  | pest or weed control at 20 ppm [1]: 100%; pest or weed control at 500 g/ha ([2]; application rate 500 g/ha): 90%; chromatographic logP [3, 6]: 2.48; chromatographic logP [3, 7]: 2.39; chromatographic logP [3, 8]: 2.39; chromatographic logP [3, 9]: 2.48
10 | Cc1ccc(-n2ccc(=O)n(C(C)C)c2=O)cc1SCC(F)(F)F [compound 87] | 90% | 100% | 3.18 | 3.25 | 
11 | Cc1ccc(-n2ccc(=O)n(CC(F)(F)F)c2=O)cc1[S+]([O-])CC(F)(F)F (centres unmarked) [compound 90] | 100% | 100% | 2.18 | 2.21 | 
12 | C=CCn1c(=O)ccn(-c2cc([S+]([O-])CC(F)(F)F)c(C)cc2F)c1=O (racemic) [compound 65] | 100% |  | 2.01 | 2.08 | efficacy (spider mites killed) ([2]; application rate 100 g/ha): 90%
13 | Cc1ccc(-n2ccc(=O)n(C)c2=O)cc1[S+]([O-])CC(F)(F)F (centres unmarked) [Ex. No. 57, 3-Methyl-1-{4-methyl-3-[(2,2,2-trifluoroethyl)sulphinyl]phenyl}pyrimidine-2,4(1H,3H)-dione] |  |  |  |  | pest or weed control at 20 ppm [1]: 90%; chromatographic logP [3, 6]: 1.5; chromatographic logP [3, 7]: 1.49; chromatographic logP [3, 8]: 1.49; chromatographic logP [3, 9]: 1.5
14 | Cc1cc(F)c(-n2ccc(=O)n(CC(C)C)c2=O)cc1[S+]([O-])CC(F)(F)F (centres unmarked) [compound 69] | 100% |  | 2.48 | 2.55 | 
15 | Cc1cc(C)c(-n2ncc(=O)n(CC#N)c2=O)cc1SCC(F)(F)F [compound 40] |  | 100% | 3.1 | 3.05 | 
16 | Cc1cc(F)c(-n2ncc(=O)n(C(C)C)c2=O)cc1SCC(F)(F)F [compound 26] |  | 100% | 3.73 | 3.67 | 
17 | CCCn1c(=O)ccn(-c2cc([S+]([O-])CC(F)(F)F)c(C)cc2F)c1=O (centres unmarked) [compound 66] |  | 90% | 2.17 | 2.25 | 
18 | CCc1cc(CC)c([S+]([O-])CC(F)(F)F)cc1-n1c(C)c(C#N)c(=O)[nH]c1=O (centres unmarked) [Ex. No. 18, 1-{2,4-Diethyl-5-[(2,2,2-trifluoroethyl)sulphinyl]phenyl}-6-methyl-2,4-dioxo-1,2,3,4-tetrahydropyrimidine-5-carbonitrile] |  |  |  |  | pest or weed control at 500 g/ha ([2]; application rate 500 g/ha): 90%; chromatographic logP [3, 6]: 2.15; chromatographic logP [3, 7]: 2.15; chromatographic logP [3, 8]: 1.55; chromatographic logP [3, 9]: 1.55
19 | Cc1cc(C)c([S+]([O-])CC(F)(F)F)cc1-n1ncc(=O)n(Cc2ccccc2)c1=O (racemic) [compound 52] |  |  | 3.06 | 3.00 | efficacy (spider mites killed) ([2]; application rate 100 g/ha): 90%
20 | Cc1cc(C)c([S+]([O-])CC(F)(F)F)cc1-n1ccc(=O)n(C)c1=O (centres unmarked) [compound 93] |  | 100% | 1.68 | 1.7 | 
21 | Cc1cc(C)c(-n2ccc(=O)n(CC(F)(F)F)c2=O)cc1SCC(F)(F)F [compound 94] |  | 100% | 3.39 | 3.49 | 
22 | CCn1c(=O)ccn(-c2cc(SCC(F)(F)F)c(C)cc2C)c1=O [compound 96] |  | 100% | 2.98 | 3.07 | 
23 | Cc1ccc(-n2ccc(=O)[nH]c2=O)cc1[S+]([O-])CC(F)(F)F (centres unmarked) [compound 91] |  | 100% | 1.20 | 1.19 | 
24 | Cc1cc(C)c(-n2ncc(=O)n(CC3CC3)c2=O)cc1SCC(F)(F)F [compound 34] |  | 100% | 3.94 | 3.87 | 
25 | Cc1ccc(-n2ncc(=O)n(C)c2=O)cc1SCC(F)(F)F [compound 23] |  | 100% | 2.9 | 2.83 | 
